Results reported in PubChem BioAssay (NCI).
Where “and” joins values, the source holds several entries; their conditions need not be identical. Identical values can stand only once.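 Each compound was tested at five concentrations against cells in 96-well plates for 48 hours. GI50 marks 50% less growth. At the TGI there is no net growth.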

How the values were obtained:
Assay in all cases: NCI anticancer screen, dose series, 48 h
[1] = system: UACC-257 melanoma
[2] = system: HCT-116 colon
[3] = system: ACHN renal
[4] = system: HT29 colon
[5] = system: HS 578T breast
[6] = system: U251 CNS
[7] = system: MDA-MB-231 breast
[8] = system: MALME-3M melanoma
[9] = system: SK-OV-3 ovarian
[10] = system: HL-60(TB) leukemia

CC1(C)CCC(C)(C)c2c1ccc(O)c2Cc1c(O)ccc2c1C(C)(C)CCC2(C)C
TGI [1]: 3.45 µM | TGI [2]: 4.2 µM | TGI [3]: 3.19 µM | TGI [4]: 4.4 µM | TGI [5]: 8.85 µM | TGI [6]: 3.18 µM | TGI [7]: 3.22 µM | TGI [8]: 6.6 µM | TGI [9]: 4.84 µM | TGI [10]: 5.46 µM

CN(C)CCOC(c1ccccc1)c1ccccc1
GI50 [1]: 14.2 µM | TGI [1]: 19.8 µM and > 100 µM | GI50 [2]: 32.1 µM | TGI [2]: 48.7 µM and > 100 µM | TGI [3]: > 100 µM | GI50 [4]: 23.8 µM | TGI [4]: 45.5 µM and > 100 µM | GI50 [5]: 32.2 µM | TGI [5]: 51.3 µM and > 100 µM | GI50 [7]: 15.6 µM | TGI [7]: 45.2 µM and > 100 µM | GI50 [8]: 25.2 µM | TGI [8]: 46 µM and > 100 µM | GI50 [9]: 40.6 µM | TGI [9]: 54.8 µM | TGI [10]: > 100 µM

CCCCCCc1nc2nc(Cl)c(Cl)nc2[nH]1
GI50 [1]: 3.02 µM | TGI [1]: > 100 µM | GI50 [2]: 6.83 µM | TGI [2]: > 100 µM | GI50 [3]: 6.94 µM | TGI [3]: > 100 µM | GI50 [4]: > 100 µM | TGI [4]: > 100 µM | GI50 [5]: > 100 µM | TGI [5]: > 100 µM | GI50 [6]: 6.44 µM | TGI [6]: > 100 µM | GI50 [7]: 35.9 µM | TGI [7]: > 100 µM | GI50 [8]: 4.63 µM | TGI [8]: > 100 µM | GI50 [9]: > 100 µM | TGI [9]: > 100 µM | GI50 [10]: 6.84 µM | TGI [10]: > 100 µM

O=S(=O)(Nc1cc(Cl)ccc1Cl)c1ccc(-c2cnc(C3CC3)o2)cc1
GI50 [1]: 15 µM | TGI [1]: 56.4 µM | GI50 [2]: 0.453 µM | TGI [2]: 15 µM | GI50 [3]: 4.1 µM | TGI [3]: 76.6 µM | GI50 [4]: 0.654 µM | TGI [4]: 13.5 µM | GI50 [5]: 0.701 µM | TGI [5]: 24 µM | GI50 [6]: 2 µM | TGI [6]: 68.2 µM | GI50 [7]: 4.31 µM | TGI [7]: 43 µM | GI50 [8]: 10.8 µM | TGI [8]: 57.6 µM | GI50 [9]: 5.3 µM | TGI [9]: 85.5 µM | GI50 [10]: 0.468 µM | TGI [10]: 16.4 µM

COc1cnc2c(c1)C(=O)c1c-2n(CCCNC(C)C)c(=O)c2cc(F)ccc12
GI50 [1]: 0.47 µM | TGI [1]: 2.07 µM | GI50 [2]: 0.093 µM | TGI [2]: 0.328 µM | GI50 [3]: 0.0565 µM | TGI [3]: 0.229 µM | GI50 [4]: 0.0731 µM | TGI [4]: 0.33 µM | GI50 [5]: 0.754 µM | TGI [5]: 5.22 µM | GI50 [6]: 0.0788 µM | TGI [6]: 0.397 µM | GI50 [7]: 0.402 µM | TGI [7]: 1.57 µM | GI50 [8]: 0.197 µM | TGI [8]: 0.937 µM | GI50 [9]: 0.22 µM | TGI [9]: 0.707 µM | GI50 [10]: 0.161 µM | TGI [10]: 0.615 µM

CNC(=O)Oc1cc(C)c(/C=C/c2cncc(C(=O)NC)c2)c(C)c1
GI50 [1]: 24.7 µM | TGI [1]: > 25 µM | GI50 [2]: > 25 µM | TGI [2]: > 25 µM | GI50 [3]: > 25 µM | TGI [3]: > 25 µM | GI50 [4]: > 25 µM | TGI [4]: > 25 µM | GI50 [5]: 12.9 µM | TGI [5]: > 25 µM | GI50 [6]: > 25 µM | TGI [6]: > 25 µM | GI50 [7]: > 25 µM | TGI [7]: > 25 µM | GI50 [8]: 13.6 µM | TGI [8]: > 25 µM | GI50 [9]: > 25 µM | TGI [9]: > 25 µM | GI50 [10]: > 21.2 µM | TGI [10]: > 25 µM

CCCCCCCCCCCCOC1C(C(CC(=O)N2CCN(c3cccc(C(F)(F)F)c3)CC2)NS(=O)(=O)c2cc(Cl)cc(Cl)c2)OC2OC(C)(C)OC21 (centres undefined)
GI50 [1]: > 100 µM | TGI [1]: > 100 µM | GI50 [2]: > 100 µM | TGI [2]: > 100 µM | GI50 [3]: > 100 µM | TGI [3]: > 100 µM | GI50 [4]: > 100 µM | TGI [4]: > 100 µM | GI50 [5]: > 100 µM | TGI [5]: > 100 µM | GI50 [6]: > 100 µM | TGI [6]: > 100 µM | GI50 [7]: > 100 µM | TGI [7]: > 100 µM | GI50 [8]: > 100 µM | TGI [8]: > 100 µM | GI50 [9]: > 100 µM | TGI [9]: > 100 µM | GI50 [10]: > 100 µM | TGI [10]: > 100 µM

C/C(=C(\c1ccc(OCCN2CCCCCC2)cc1)c1ccc(OC(=O)Cc2ccccc2)cc1)c1ccc(Cl)cc1
GI50 [1]: 3.25 µM | TGI [1]: 6.22 µM | GI50 [2]: 1.32 µM | TGI [2]: 3.47 µM | GI50 [3]: 2.63 µM | TGI [3]: 4.93 µM | GI50 [4]: 1.05 µM | TGI [4]: 4.01 µM | GI50 [5]: 2.86 µM | TGI [5]: 6.52 µM | GI50 [6]: 2.59 µM | TGI [6]: 5.03 µM | GI50 [7]: 3.04 µM | TGI [7]: 5.69 µM | GI50 [8]: 2.86 µM | TGI [8]: 5.71 µM | GI50 [9]: 4.87 µM | TGI [9]: 15.6 µM | GI50 [10]: 3.5 µM | TGI [10]: 8.17 µM

O=C1OC(c2ccccc2)(c2cc(Br)c(O)c(Br)c2)c2ccccc21 (centres undefined)
GI50 [1]: 35.4 µM | TGI [1]: > 100 µM | GI50 [2]: 15.6 µM | TGI [2]: 29.1 µM | GI50 [3]: 34.5 µM | TGI [3]: > 100 µM | GI50 [5]: 18.5 µM | TGI [5]: 57.3 µM | GI50 [6]: 16.9 µM | TGI [6]: 38 µM | GI50 [7]: 25.9 µM | TGI [7]: 86.1 µM | GI50 [8]: 25.3 µM | TGI [8]: 77.5 µM | GI50 [9]: 21.4 µM | TGI [9]: 53.7 µM | GI50 [10]: 22.8 µM | TGI [10]: 67.8 µM

C=CN(C)S(C)(=O)=O
GI50 [1]: > 100 µM | TGI [1]: > 100 µM | GI50 [2]: > 100 µM | TGI [2]: > 100 µM | GI50 [3]: > 100 µM | TGI [3]: > 100 µM | GI50 [4]: > 100 µM | TGI [4]: > 100 µM | GI50 [5]: > 100 µM | TGI [5]: > 100 µM | GI50 [6]: > 100 µM | TGI [6]: > 100 µM | GI50 [7]: > 100 µM | TGI [7]: > 100 µM | GI50 [8]: > 100 µM | TGI [8]: > 100 µM | GI50 [9]: > 100 µM | TGI [9]: > 100 µM | GI50 [10]: > 100 µM | TGI [10]: > 100 µM

O=c1c2c3c(sc2nc(N/N=C/c2ccc(Br)cc2)n1Cc1ccccc1)CCCC3
GI50 [1]: > 100 µM | TGI [1]: > 100 µM | GI50 [2]: 5.66 µM | TGI [2]: > 100 µM | GI50 [3]: > 100 µM | TGI [3]: > 100 µM | GI50 [4]: > 100 µM | TGI [4]: > 100 µM | GI50 [5]: > 100 µM | TGI [5]: > 100 µM | GI50 [6]: 7.83 µM | TGI [6]: > 100 µM | GI50 [7]: 48 µM | TGI [7]: > 100 µM | GI50 [8]: 42.7 µM | TGI [8]: > 100 µM | GI50 [9]: > 100 µM | TGI [9]: > 100 µM | GI50 [10]: 9.26 µM | TGI [10]: > 100 µM

COc1cccc2c1c(C1=C(c3cn(C)c4ccccc34)C(=O)NC1=O)cn2C
GI50 [1]: > 25 µM | TGI [1]: > 25 µM | GI50 [2]: > 25 µM | TGI [2]: > 25 µM | GI50 [3]: > 25 µM | TGI [3]: > 25 µM | GI50 [4]: > 25 µM | TGI [4]: > 25 µM | GI50 [5]: > 25 µM | TGI [5]: > 25 µM | GI50 [6]: > 25 µM | TGI [6]: > 25 µM | GI50 [7]: > 25 µM | TGI [7]: > 25 µM | GI50 [8]: > 25 µM | TGI [8]: > 25 µM | GI50 [9]: > 25 µM | TGI [9]: > 25 µM | GI50 [10]: > 25 µM | TGI [10]: > 25 µM
